Experimental data taken from ChEMBL document CHEMBL1136476, “Catechol-substituted L-chicoric acid analogues as HIV integrase inhibitors” (Bioorg Med Chem Lett, 2003).

Target: Human immunodeficiency virus type 1 integrase (Human immunodeficiency virus 1, UniProt Q7ZJM1)
Test: Inhibitory activity against HIV-1 integrase

Human immunodeficiency virus type 1 integrase, sequence (Q7ZJM1 whole entry): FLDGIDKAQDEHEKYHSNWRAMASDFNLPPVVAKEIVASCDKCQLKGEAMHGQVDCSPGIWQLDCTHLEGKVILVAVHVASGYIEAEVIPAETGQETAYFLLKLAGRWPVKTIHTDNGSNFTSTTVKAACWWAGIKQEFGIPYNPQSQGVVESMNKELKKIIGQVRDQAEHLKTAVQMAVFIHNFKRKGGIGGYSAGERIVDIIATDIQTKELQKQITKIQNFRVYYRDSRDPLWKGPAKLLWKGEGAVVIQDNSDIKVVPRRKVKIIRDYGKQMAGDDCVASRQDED

| Structure (SMILES) | IC50 [µM] |
| --- | --- |
| COc1ccc(C(C(=O)O)C(C(=O)O)c2ccc(OC)c(OC)c2)cc1OC (stereo not given) | > 150 |
| COc1ccc(C2=C(c3ccc(OC)c(OC)c3)C(=O)OC2=O)cc1OC | > 150 |
| O=C1NC(=O)C(c2ccc(O)c(O)c2)=C1c1ccc(O)c(O)c1 | 15.5 |
| O=C(O)c1[nH]c(C(=O)O)c(-c2ccc(O)c(O)c2)c1-c1ccc(O)c(O)c1 | 5.3 |
| COc1ccc(-c2c(C(=O)O)[nH]c(C(=O)O)c2-c2ccc(OC)c(OC)c2)cc1OC | > 150 |
| O=C(O)C(Cc1ccc(O)c(O)c1)C(Cc1ccc(O)c(O)c1)C(=O)O (stereo not given) | 19.1 |
| COc1ccc(CC(C(=O)O)C(Cc2ccc(OC)c(OC)c2)C(=O)O)cc1OC (stereo not given) | > 150 |

Other lines, results leading:

| IC50 [µM] | Structure (SMILES) |
| --- | --- |
| > 150 | COc1ccc(C2=C(c3ccc(OC)c(OC)c3)C(=O)NC2=O)cc1OC |
| 3.8 | O=C1OC(=O)C(c2ccc(O)c(O)c2)=C1c1ccc(O)c(O)c1 |
| 23.6 | O=C(O)C(c1ccc(O)c(O)c1)C(C(=O)O)c1ccc(O)c(O)c1 (stereo not given) |
